Consider seven compounds from patent EP0915894B1, “NUCLEOTIDE ANALOGS” (GILEAD SCIENCES, INC., priority 1996, dated 1998).

One data set concerns HIV-1(IIIB). Briefly: Antiviral activity against HIV-1(IIIB) in MT-2 cells (tissue culture). It counts as cell-based. To be noted: for SI - Selectivity Index(CC50/IC50): CC50/IC50, HIV-1, MT-2 cells; for IC50: Human immunodeficiency virus 1, MT2, HIV-1(IIIB), MT-2 cells, read-out: IC50 (50% inhibitory concentration).
The next data set deals with MT-2 cells. Put plainly: Cytotoxicity in MT-2 cells (concentration to kill 50% of the cells). It counts as cell-based.
The nature of data set [1]: Chemical (solution) stability of PMPA carbonates. It counts as physicochemical. To be noted: compared with preferred t 1/2 at pH 7.4 (> 2-12 hours) and at pH 2.0 (> 1, 10 or 100 hours). The protocol:
The solution stability of PMPA carbonates was studied at pH 7.4 at 37°C in 10 mM buffer (NaH2PO4 and Na2HPO4) with the total ionic strength adjusted to 0.15 M with KCl. The assays were performed by adding 200 µL of a PMPA carbonate stock solution (about 1 mg/mL in DMSO) to 10 mL of pre-equilibrated buffer at 37°C. Samples were removed at specific times points and analyzed by HPLC. The chemical t 1/2 is expressed in terms of the number of hours required to hydrolyze 50% of the carbonate at the specified pH.

A short description of data set [2]: Cytotoxicity in MT-2 cells (concentration to kill 50% of the cells). It counts as cell-based. Particulars: human.
Excerpt: (§1) PMPA (9-[(R)-2-(phosphonomethoxy)propyl]adenine) and PMPA carbonates were examined to determine their activity against HIV-1.

Structures are written as SMILES.

Excerpt for HIV-1(IIIB): as §1
Excerpt for physchem: as §1

Turning to `CCOC(=O)OCOP(=O)(CO[C@H](C)Cn1cnc2c(N)ncnc21)OCOC(=O)OCC` [5a], in the data set with HIV-1(IIIB), the “SI - Selectivity Index(CC50/IC50)” value is 20000 and the IC50 is 2 nM. Further, in the data set with MT-2 cells, the CC50 is 40000 nM.
The like results for `CC(C)COC(=O)OCOP(=O)(CO[C@H](C)Cn1cnc2c(N)ncnc21)OCOC(=O)OCC(C)C` [5c] were, in that order, 30000, less than 1 nM and 30000 nM.
Consider `C[C@H](Cn1cnc2c(N)ncnc21)OCP(=O)(OCOC(=O)OC(C)(C)C)OCOC(=O)OC(C)(C)C` [5d], for which, in the data set with HIV-1(IIIB), the “SI - Selectivity Index(CC50/IC50)” value stood at 50 and the IC50 turned out to be 200 nM. Besides, in the data set with HIV-1(IIIB) (anti-HIV-1 activity relative to PMPA), the “increased potency / activity compared to PMPA” value came to 2.5 fold. In the data set on MT-2 cells, the CC50 amounted to 10000 nM. The “t 1/2 (chemical stability)” value in data set [1] is on record as “less stable than these parameters”.
On to `C[C@H](Cn1cnc2c(N)ncnc21)OCP(=O)(OCOC(=O)OCC(C)(C)C)OCOC(=O)OCC(C)(C)C` [5e], for which, in the data set with HIV-1(IIIB), the “SI - Selectivity Index(CC50/IC50)” value was found to be 3000 and the IC50 was less than 1 nM. The compound also showed a CC50 in the data set on MT-2 cells of 3000 nM.
The like results for `CC(C)OC(=O)OCOP(=O)(CO[C@H](C)Cn1cnc2c(N)ncnc21)OCOC(=O)OC(C)C` [5f] were, in that order, 16600, 3 nM and 50000 nM.
The matching figures for `CCC(CC)OC(=O)OCOP(=O)(CO[C@H](C)Cn1cnc2c(N)ncnc21)OCOC(=O)OC(CC)CC` [5g]: 40000, less than 1 nM and 40000 nM.
Take `C[C@H](Cn1cnc2c(N)ncnc21)OCP(=O)(O)O` [compound 2, 9-[(R)-2-(phosphonomethoxy)propyl]adenine, reference compound]: in the data set “physchem”, the logP is -2.5. In the data set on HIV-1(IIIB), the “SI - Selectivity Index(CC50/IC50)” value was determined as 500 and the IC50 was determined as 500 nM. This compound returned a CC50 in data set [2] of 250000 nM.

As usually defined, the CC50 is the concentration that lowers cell viability or growth by half. A lower CC50 goes with harm at low concentration. The term logP denotes a log measure of how a compound divides between an organic and an aqueous phase. A high value points to a more lipophilic compound.
